Data as given in patent US20040063763A1, “2-METHOXYIMINO-2(PYRIDINYLOXYMETHYL)PHENYL ACETAMIDES USEFUL AS FUNGICIDES” (priority 2003, published 2004).

What was measured:
Format in all cases: in vivo
Erysiphe graminis = assay: Powdery Mildew of Wheat 1-day protectant whole plant test (ERYSGT 1DP); conditions: 100 ppm spray to run off, wheat (cultivar Monon), inoculated after 24 hours
Phytophthora infestans = conditions: 100 ppm spray to run off, tomatoes (cultivar Rutgers), inoculated after 24 hours
Puccinia recondita = assay: Brown rust of wheat 1-day protectant whole plant test (PUCCRT 1DP); conditions: 100 ppm spray to run off, wheat (cultivar Monon), inoculated after 24 hours

CNC(=O)/C(=N/OC)c1ccccc1COc1ncc(C2=NOCC2)cc1C [Compound 1, (2E)-2-[2˜({[5-(4,5-dihydroisoxazol-3-yl)-3-methylpyridin-2-yl]oxy}methyl)phenyl]-2-(methoxyimino)-N-methylethanamide]
>95%: ERYSGT 1DP percent control of the plant disease (Erysiphe graminis) | PHYTIN 1DP percent control of the plant disease (Phytophthora infestans) | PUCCRT 1DP percent control of the plant disease (Puccinia recondita)
